Assay results: ChEMBL document CHEMBL1201862, “PubChem BioAssay data set” (2004)
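Assay format: 96-well plates, 48-hour exposure. GI50: concentration for 50% inhibition of growth.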 Calls of active or inactive are those of the source. No stated cut-off is given here; in the data, active = GI50 up to about 1.1 µM and inactive = higher.

How the values were obtained:
Experiment in all cases: NCI tumour cell line growth inhibition, 48 h
[1] = tested on: CAKI-1
[2] = tested on: CCRF-CEM
[3] = tested on: COLO 205
[4] = tested on: DU-145
[5] = tested on: EKVX
[6] = tested on: HCT-15
[7] = tested on: HOP-62
[8] = tested on: HOP-92
[9] = tested on: LOX IMVI
[10] = tested on: MCF7
[11] = tested on: NCI-H522
[12] = tested on: OVCAR-3
[13] = tested on: SF-295
[14] = tested on: SK-MEL-28
[15] = tested on: SN12C
[16] = tested on: SR
[17] = tested on: SW-620
[18] = tested on: T47D
[19] = tested on: UACC-62
[20] = tested on: TK-10

| Structure (SMILES) | GI50 [1] | GI50 [2] | GI50 [3] | GI50 [4] | GI50 [5] | GI50 [6] [µM] | GI50 [7] | GI50 [8] | GI50 [9] | GI50 [10] | GI50 [11] | GI50 [12] | GI50 [13] | GI50 [14] | GI50 [15] | GI50 [16] | GI50 [17] | GI50 [18] | GI50 [19] | GI50 [20] |
| --- | --- | --- | --- | --- | --- | --- | --- | --- | --- | --- | --- | --- | --- | --- | --- | --- | --- | --- | --- | --- |
| CC1(C)CC[C@]2(C(=O)O)CC[C@]3(C)C(=CC[C@@H]4[C@@]5(C)CC[C@H](OC6OC(C(=O)O)C(O)C(O)C6O)C(C)(C)[C@@H]5CC[C@]43C)[C@@H]2C1 (stereo not given in full) | 18.7 µM (inactive) | 21 µM (inactive) | 16.9 µM (inactive) | 16.8 µM (inactive) | 24.5 µM (inactive) | 16.9 | 18.8 µM (inactive) | 13.1 µM (inactive) | 19 µM (inactive) | 24.9 µM (inactive) | 19.4 µM (inactive) | 14.2 µM (inactive) | 15.2 µM (inactive) | 19.6 µM (inactive) | 16.8 µM (inactive) | 15 µM (inactive) | 17.4 µM (inactive) | 18.4 µM (inactive) | 18.4 µM (inactive) | – |
| CCC1c2[nH]c3ccccc3c2C[C@H]2C(=O)N3CCC[C@H]3C(=O)N12 (stereo not given in full) | > 100 µM (inactive) | – | > 100 µM (inactive) | > 100 µM (inactive) | > 100 µM (inactive) | 53.7 | > 100 µM (inactive) | > 100 µM (inactive) | > 100 µM (inactive) | > 100 µM (inactive) | 75.7 µM (inactive) | > 100 µM (inactive) | > 100 µM (inactive) | > 100 µM (inactive) | > 100 µM (inactive) | 59.3 µM (inactive) | 92.9 µM (inactive) | 67.8 µM (inactive) | 70.6 µM (inactive) | > 100 µM (inactive) |
| CC1(C)C2CCC1C(=O)[C@@]1(C=CC(=O)CC1)C2 (stereo not given in full) | – | > 100 µM (inactive) | > 100 µM (inactive) | > 100 µM (inactive) | > 100 µM (inactive) | > 100 | > 100 µM (inactive) | > 100 µM (inactive) | > 100 µM (inactive) | > 100 µM (inactive) | > 100 µM (inactive) | > 100 µM (inactive) | > 100 µM (inactive) | 43.1 µM (inactive) | > 100 µM (inactive) | > 100 µM (inactive) | > 100 µM (inactive) | > 100 µM (inactive) | > 100 µM (inactive) | > 100 µM (inactive) |
| O=c1oc2ccccc2c(Nc2ccc3c(c2)Sc2ccccc2O3)c1[N+](=O)[O-] | 26.1 µM (inactive) | 31.7 µM (inactive) | 16.3 µM (inactive) | 27.8 µM (inactive) | 22.9 µM (inactive) | 25.1 | 29.4 µM (inactive) | 20.7 µM (inactive) | 33.3 µM (inactive) | 18.7 µM (inactive) | 16.4 µM (inactive) | 17.1 µM (inactive) | 22.1 µM (inactive) | 16.2 µM (inactive) | 28.9 µM (inactive) | 24.8 µM (inactive) | – | 20.8 µM (inactive) | 14.1 µM (inactive) | 23.6 µM (inactive) |
| C[C@H](OC(=O)/C=C/c1ccc(O)c(O)c1)[C@H](C)OC(=O)/C=C/c1ccc(O)c(O)c1 | 7.89 µM (inactive) | – | 20.3 µM (inactive) | 11.6 µM (inactive) | 14.7 µM (inactive) | 4.71 | 11.1 µM (inactive) | 15 µM (inactive) | 3.35 µM (inactive) | 6.28 µM (inactive) | 6.98 µM (inactive) | 4.24 µM (inactive) | 6.27 µM (inactive) | 11.5 µM (inactive) | 11.5 µM (inactive) | 8.18 µM (inactive) | 3.93 µM (inactive) | 4.41 µM (inactive) | 2.93 µM (inactive) | 10 µM (inactive) |
